Test results from US7879876B2, “Sulfonamide derivatives and use thereof for the modulation of metalloproteinases” (Merck Serono SA, priority 2005, dated 2011).
pIC50: −log10 of the molar value.

How the values were obtained:
Assay type in all cases: biochemical
metalloelastase (MMP-12) = metalloelastase (MMP-12) (Homo sapiens, UniProt P39900); test: MMP-12 enzyme inhibition assay (coumarin-labelled peptide substrate); conditions: read-out: IC50 MMP12
Method in brief: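 Recombinant human MMP-12 assayed per the MMP-9 protocol: Tris-HCl pH 7.6 buffer with NaCl, CaCl2, Brij 35; McaPLGLDpaAR substrate, compounds 100 μM–5.1 nM in duplicate, 2 h at 37° C. Fluorescence read at 405 nm (320 nm excitation) without stopping; IC50 from four-parameter fit.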

MMP-14 = MMP-14 (Homo sapiens, UniProt P50281); test: MMP-14 enzyme inhibition assay (coumarin-labelled peptide substrate); conditions: read-out: percentage inhibition MMP14
Method in brief: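 Recombinant human enzyme, APMA-activated if necessary, was incubated with McaPLGLDpaAR substrate and compound (10 concentrations in duplicate, 100 μM to 5.1 nM) in Tris-HCl pH 7.6 with NaCl, CaCl2 and Brij 35 for 2 h at 37 °C. Fluorescence was read at 320/405 nm, and IC50 was taken from a four-parameter fit.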

collagenase (MMP-1) = molecular target: T1, collagenase (MMP-1) (Homo sapiens, UniProt P03956); test: MMP-1 enzyme inhibition assay (coumarin-labelled peptide substrate); conditions: @ 5 μM; read-out: percentage inhibition MMP1
T1 sequence (P03956 100-469): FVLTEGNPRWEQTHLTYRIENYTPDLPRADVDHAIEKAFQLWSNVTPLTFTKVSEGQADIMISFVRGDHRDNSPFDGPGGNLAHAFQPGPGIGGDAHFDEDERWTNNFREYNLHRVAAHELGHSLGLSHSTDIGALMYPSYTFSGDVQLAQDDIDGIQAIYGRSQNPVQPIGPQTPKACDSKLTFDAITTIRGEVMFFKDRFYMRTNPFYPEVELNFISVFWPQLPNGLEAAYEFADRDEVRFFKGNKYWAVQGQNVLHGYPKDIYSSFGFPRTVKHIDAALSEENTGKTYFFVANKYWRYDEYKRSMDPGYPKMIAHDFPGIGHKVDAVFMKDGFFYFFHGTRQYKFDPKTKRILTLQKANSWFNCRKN
Method in brief: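 Recombinant human MMP-1, APMA-activated if needed, in Tris-HCl pH 7.6 with NaCl, CaCl2 and 0.05% Brij 35; McaPLGLDpaAR substrate added as 8 μM solution, 2 h at 37 °C. Fluorescence (320/405 nm) read without stopping; IC50 from 10 duplicate concentrations (100 μM–5.1 nM) by four-parameter fit.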

Chain of metalloelastase (MMP-12) (P39900 106-470): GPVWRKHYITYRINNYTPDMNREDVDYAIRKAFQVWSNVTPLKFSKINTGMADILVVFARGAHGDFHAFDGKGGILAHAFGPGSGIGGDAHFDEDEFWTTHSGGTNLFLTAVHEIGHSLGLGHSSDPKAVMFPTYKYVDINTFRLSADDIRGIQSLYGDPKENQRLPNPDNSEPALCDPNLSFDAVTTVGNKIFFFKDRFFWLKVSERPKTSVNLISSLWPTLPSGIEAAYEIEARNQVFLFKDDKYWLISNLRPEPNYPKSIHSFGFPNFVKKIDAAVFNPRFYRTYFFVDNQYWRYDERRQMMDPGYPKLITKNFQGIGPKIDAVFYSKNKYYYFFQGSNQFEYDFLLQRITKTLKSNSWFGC

SMILES | pIC50 (metalloelastase (MMP-12)) | inhibition at 5 µM (MMP-14) [%] | inhibition at 5 µM (collagenase (MMP-1)) [%] | inhibition at 0.1 µM (MMP-14) [%]
O=CN(O)C(CS(=O)(=O)N1CCc2ccc(-c3ccncc3)cc2C1)C1CCCC1 (stereo not shown) [Example 79, N-{1-cyclopentyl-2-[(7-pyridin-4-yl-3,4-dihydroisoquinolin-2(1H)-yl)sulfonyl]ethyl}-N-hydroxyformamide] | 8.70 | 72 | 0 | 19
O=CN(O)C(CS(=O)(=O)N1CCc2ccc(C(F)(F)F)cc2C1)C1CC1 (stereo not shown) [Example 83, N-(1-cyclopropyl-2-{[7-(trifluoromethyl)-3,4-dihydroisoquinolin-2(1H)-yl]sulfonyl}ethyl)-N-hydroxyformamide] | 7.28 | 6 | 4 | –
CC(C)c1ccc2c(c1)CCN(S(=O)(=O)CC(C1CC1)N(O)C=O)C2 (stereo not shown) [Example 85, N-{1-cyclopropyl-2-[(6-isopropyl-3,4-dihydroisoquinolin-2(1H)-yl)sulfonyl]ethyl}-N-hydroxyformamide] | 8.31 | 95 | 5 | 14
O=CN(O)C(CCc1cccnc1)CS(=O)(=O)N1CCc2ccc(Cl)cc2C1 (stereo not shown) [Example 86, N-(1-{[(7-chloro-3,4-dihydroisoquinolin-2(1H)-yl)sulfonyl]methyl}-3-pyridin-3-ylpropyl)-N-hydroxyformamide] | 8.01 | 100 | 49 | 12

Second part, the molecule after the results:

pIC50 (metalloelastase (MMP-12)) | inhibition at 5 µM (MMP-14) [%] | inhibition at 5 µM (collagenase (MMP-1)) [%] | inhibition at 0.1 µM (MMP-14) [%] | SMILES
8.29 | 78 | 17 | – | O=CN(O)C(CS(=O)(=O)N1CCc2cc(Cl)c(Cl)cc2C1)C1CCCC1 (stereo not shown) [Example 77, N-{1-cyclopentyl-2-[(6,7-dichloro-3,4-dihydroisoquinolin-2(1H)-yl)sulfonyl]ethyl}-N-hydroxyformamide]
7.35 | 15 | 25 | – | O=CN(O)C(CS(=O)(=O)N1Cc2ccc(F)cc2C1)C1CCCC1 (stereo not shown) [Example 80, N-{1-cyclopentyl-2-[(5-fluoro-1,3-dihydro-2H-isoindol-2-yl)sulfonyl]ethyl}-N-hydroxyformamide]
8.51 | 87 | 3 | 0 | CC(C)c1ccc2c(c1)CCN(S(=O)(=O)CC(C1CCCC1)N(O)C=O)C2 (stereo not shown) [Example 81, N-{1-cyclopentyl-2-[(6-isopropyl-3,4-dihydroisoquinolin-2(1H)-yl)sulfonyl]ethyl}-N-hydroxyformamide]
7.59 | 20 | 10 | – | O=CN(O)C(CS(=O)(=O)N1CCc2ccc(C(F)(F)F)cc2C1)C1CCCC1 (stereo not shown) [Example 82, N-(1-cyclopentyl-2-{[7-(trifluoromethyl)-3,4-dihydro-isoquinolin-2(1H)-yl]sulfonyl}ethyl)-N-hydroxyformamide]
